Results from PMC9120017, “Inhibition mechanism of the chloride channel TMEM16A by the pore blocker 1PBC” (Nature Communications, 2022).
Where two headings read alike, the source gives them in different places.

Biological target: T1, mouse TMEM16A mutant T539A (Mus musculus, UniProt Q8BHY3, T539A)
T1 construct: expressed in transfected cells; host or cells: HEK293T
T1 sequence (Q8BHY3 1-960 T539A): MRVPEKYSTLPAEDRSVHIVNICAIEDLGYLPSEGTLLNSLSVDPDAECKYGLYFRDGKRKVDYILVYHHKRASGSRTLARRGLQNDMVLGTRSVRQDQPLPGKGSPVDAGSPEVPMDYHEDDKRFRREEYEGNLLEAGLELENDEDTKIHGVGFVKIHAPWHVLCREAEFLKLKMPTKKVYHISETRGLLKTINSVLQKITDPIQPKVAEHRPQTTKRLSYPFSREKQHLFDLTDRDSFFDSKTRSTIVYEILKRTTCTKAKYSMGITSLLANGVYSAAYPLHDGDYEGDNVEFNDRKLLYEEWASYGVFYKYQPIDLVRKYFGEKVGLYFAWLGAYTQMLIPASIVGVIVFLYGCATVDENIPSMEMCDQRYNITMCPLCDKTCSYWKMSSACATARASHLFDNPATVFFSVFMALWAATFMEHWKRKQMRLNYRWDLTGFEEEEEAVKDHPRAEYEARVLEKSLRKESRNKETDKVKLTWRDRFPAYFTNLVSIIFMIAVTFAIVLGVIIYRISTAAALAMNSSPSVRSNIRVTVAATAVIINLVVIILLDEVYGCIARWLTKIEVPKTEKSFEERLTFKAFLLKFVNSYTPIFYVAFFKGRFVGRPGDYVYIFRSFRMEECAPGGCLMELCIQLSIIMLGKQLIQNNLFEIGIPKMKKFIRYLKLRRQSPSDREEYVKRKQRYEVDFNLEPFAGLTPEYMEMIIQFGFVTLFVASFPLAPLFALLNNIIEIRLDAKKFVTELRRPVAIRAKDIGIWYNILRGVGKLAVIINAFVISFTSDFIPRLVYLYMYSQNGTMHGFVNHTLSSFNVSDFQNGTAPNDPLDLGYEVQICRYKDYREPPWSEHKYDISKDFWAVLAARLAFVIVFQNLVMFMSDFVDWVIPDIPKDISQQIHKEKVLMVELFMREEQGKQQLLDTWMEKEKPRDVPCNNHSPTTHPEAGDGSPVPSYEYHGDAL
Experiment: Inside-out patch recording of 1PBC block, mutant T539A
Type: cell-based
Settings: for remaining activity at 30 µM: 1PBC 30; for remaining activity at 30 µM / remaining activity at 100 µM: read-out: fraction of unblocked current; for remaining activity at 100 µM: 1PBC 100
Method: HEK293T cells (ATCC CRL-1573) were maintained in Dulbecco’s modified Eagle’s medium (DMEM; Sigma-Aldrich) supplemented with 10 U ml^−1 penicillin, 0.1 mg ml^−1 streptomycin (Sigma-Aldrich), 2 mM L-glutamine (Sigma-Aldrich), and 10% FBS (Sigma-Aldrich) in a humidified atmosphere containing 5% CO2 at 37 °C. HEK293S GnTI^− cells (ATCC CRL-3022) were maintained in HyClone HyCell TransFx-H medium (GE Healthcare) supplemented with 10 U ml^−1 penicillin, 0.1 mg ml^−1 streptomycin, 4 mM L-glutamine, 0.15% poloxamer 188 (Sigma-Aldrich), and 1% FBS in an atmosphere containing 5% CO2 at 185 rpm at 37 °C. The ac splice variant of mouse TMEM16A (UniProt ID: Q8BHY3), mouse TMEM16B (UniProt ID: Q8CFW1), or mouse TMEM16F (UniProt ID: Q6P9J9) bearing a 3C cleavage site, a Venus YFP, a Myc tag, and a Streptavidin-binding peptide (SBP) downstream of the open reading frame in a modified pcDNA3.1 vector (Invitrogen) were used as described previously[21],[31]. Mutations were introduced using a modified QuikChange method[58] and were verified by sequencing.
HEK293T cells were transfected with 3–4 μg DNA per 6 cm Petri dish using the calcium phosphate co-precipitation method and were used within 24–96 h after transfection. Recordings were performed on inside-out patches excised from HEK293T cells expressing the construct of interest. Patch pipettes were pulled from borosilicate glass capillaries (O.D. 1.5 mm, I.D. 0.86 mm, Sutter Instrument) and were fire-polished with a microforge (Narishige) before use. Pipette resistance was typically 3–8 MΩ when filled with the recording solutions detailed below. Seal resistance was typically 4 GΩ or higher. Voltage-clamp recordings were made using Axopatch 200B, Digidata 1550, and Clampex 10.7 (Molecular Devices). Analog signals were filtered with the in-built 4-pole Bessel filter at 10 kHz and were digitized at 20 kHz. Solution exchange was achieved using a gravity-fed system through a theta glass pipette mounted on an ultra-fast piezo-driven stepper (Siskiyou). […] All recordings were performed at 20 °C.
A symmetrical ionic condition was used throughout. Stock solution with Ca^2+-EGTA contained 150 mM NaCl, 5.99 mM Ca(OH)2, 5 mM EGTA, and 10 mM HEPES at pH 7.40. Stock solution with EGTA contained 150 mM NaCl, 5 mM EGTA, and 10 mM HEPES at pH 7.40. Free Ca^2+ concentrations were adjusted by mixing the stock solutions at the required ratios calculated using the WEBMAXC program (http://web.stanford.edu/~cpatton/webmaxcS.htm). Patch pipettes were filled with the stock solution with Ca^2+-EGTA, which has a free Ca^2+ concentration of 1 mM. 1PBC (ChemBridge) stock was reconstituted in anhydrous DMSO (Sigma-Aldrich) at 100 mM and stored at −20 °C. Working solutions with 1PBC were prepared by serial dilution. Unless otherwise stated, experiments were performed at a saturating Ca^2+ concentration as shown in Supplementary Table 1 and the primary data were corrected for current rundown as described previously[21],[25].
Concentration-response relations, obtained from the ratio of the I-V plots before and after the application of the blocker, were fitted to the Hill equation,1 I/Imax=1/1+IC50/[blocker]^h where I/Imax is the normalized current responses, IC50 defines the concentration at which inhibition is at its half-maximum, and h is the Hill coefficient.

- remaining activity at 30 µM (-60 mV): 46.1%
- remaining activity at 30 µM (-80 mV): 49.4%
- remaining activity at 30 µM (-100 mV): 53.7%
- remaining activity at 30 µM (-120 mV): 55.9%
- remaining activity at 30 µM (-140 mV): 58.7%
- remaining activity at 100 µM (0 mV): 14.3%
- remaining activity at 100 µM (20 mV): 11.9%
- remaining activity at 100 µM (40 mV): 11.3%
- remaining activity at 100 µM (60 mV): 10%
- remaining activity at 100 µM (80 mV): 8.95%
- remaining activity at 100 µM (100 mV): 7.58%
- remaining activity at 100 µM (120 mV): 8.07%
- remaining activity at 100 µM (140 mV): 8.23%
- remaining activity at 100 µM (-20 mV): 16.6%
- remaining activity at 100 µM (-40 mV): 18.5%
- remaining activity at 100 µM (-60 mV): 21.3%
- remaining activity at 100 µM (-80 mV): 25%
- remaining activity at 100 µM (-100 mV): 28.2%
- remaining activity at 100 µM (-120 mV): 30.6%
- remaining activity at 100 µM (-140 mV): 34%
- IC50 (20 mV, 2 µM Ca2+): 12.9 µM
- IC50 (40 mV, 2 µM Ca2+): 11 µM
- IC50 (60 mV, 2 µM Ca2+): 9.86 µM
- log-fold IC50 (change of mutant vs WT) (80 mV): 0.6239
- IC50 (80 mV, 2 µM Ca2+): 9.02 µM
- IC50 (100 mV, 2 µM Ca2+): 8.74 µM
- IC50 (120 mV, 2 µM Ca2+): 8.83 µM
- IC50 (140 mV, 2 µM Ca2+): 9.45 µM
- IC50 (-20 mV, 2 µM Ca2+): 17.3 µM
- IC50 (-40 mV, 2 µM Ca2+): 20.5 µM
- IC50 (-60 mV, 2 µM Ca2+): 24.4 µM
- IC50 (-80 mV, 2 µM Ca2+): 28.9 µM
- IC50 (-100 mV, 2 µM Ca2+): 34.3 µM
- IC50 (-120 mV, 2 µM Ca2+): 38.6 µM
- IC50 (-140 mV, 2 µM Ca2+): 44.4 µM
- IC50 (T539A, V 0 mV): 14.9 µM
- IC50 (T539A, V 20 mV): 12.9 µM
- IC50 (T539A, V 40 mV): 11 µM
- IC50 (T539A, V 60 mV): 9.86 µM
- IC50 (T539A, V 80 mV): 9.02 µM
- IC50 (T539A, V 100 mV): 8.74 µM
- IC50 (T539A, V 120 mV): 8.83 µM
- IC50 (T539A, V 140 mV): 9.45 µM
- IC50 (T539A, V -20 mV): 17.3 µM
- IC50 (T539A, V -40 mV): 20.5 µM
- IC50 (T539A, V -60 mV): 24.4 µM
- IC50 (T539A, V -80 mV): 28.9 µM
- IC50 (T539A, V -100 mV): 34.3 µM
- IC50 (T539A, V -120 mV): 38.6 µM
- IC50 (T539A, V -140 mV): 44.4 µM
SMILES: N#Cc1c(C(F)(F)F)cc(O)n2c1nc1ccccc12 [1PBC]
